The numbers were not newly measured in patent US20190262453A1, “DESIGN AND COMPOSITION OF CELL-STABILIZED PHARMACEUTICAL FORMULATIONS” (THE REGENTS OF THE UNIVERSITY OF MICHIGAN, priority 2016, published 2019), which cites them from elsewhere.

Where “and” joins values, the source holds several entries; their conditions need not be identical. Equal values may be shown once.

For this data set the following is noted: in vivo; cited from earlier work.
Usually Vd stands for the apparent volume that relates the amount in the body to the concentration in plasma or blood. `CC(C)NCC(O)COc1cccc2ccccc12` (stereo not drawn) [Propranolol]: the Vd was 4.3 L/kg.
`CNCCC(Oc1ccc(C(F)(F)F)cc1)c1ccccc1` (stereo not drawn) [Fluoxetine]: the volume of distribution (Vd) is 35 L/kg.
As to `O=C1CN=C(c2ccccc2Cl)c2cc([N+](=O)[O-])ccc2N1` [Clonazepam], the Vd was 3.2 L/kg.
On to `O=C1CC2(CCCC2)CC(=O)N1CCCCN1CCN(c2ncccn2)CC1` [Buspirone], for which the volume of distribution (Vd) is 5.3 L/kg.
As to `O=C(C1CCCCC1)N1CC(=O)N2CCc3ccccc3C2C1` (stereo not drawn) [Praziquantel], the Vd was 9.55 L/kg.
`CO[C@H]1C[C@@H]2CC[C@@H](C)[C@@](O)(O2)C(=O)C(=O)N2CCCC[C@H]2C(=O)O[C@H]([C@H](C)C[C@@H]2CC[C@@H](OC(=O)C(C)(CO)CO)[C@H](OC)C2)CC(=O)[C@H](C)/C=C(\C)[C@@H](O)[C@@H](OC)C(=O)[C@H](C)C[C@H](C)/C=C/C=C/C=C/1C` [Temsirolimus]: the Vd was 3.3 L/kg.
With `O=C(O[C@H]1CN2CCC1CC2)N1CCc2ccccc2[C@@H]1c1ccccc1` [Solifenacin], the Vd is 671 L/kg.
As for `CCCN[C@H]1CCc2nc(N)sc2C1` [Pramipexole], the distribution volume (Vd) is 7.3 L/kg.
On to `CN(C)c1cc(NC(=O)CNC(C)(C)C)c(O)c2c1C[C@H]1C[C@H]3[C@H](N(C)C)C(O)=C(C(N)=O)C(=O)[C@@]3(O)C(O)=C1C2=O` [Tigecycline], for which the Vd is 7.2 L/kg.
With `CC(NC(C)(C)C)C(=O)c1cccc(Cl)c1` (stereo not drawn) [Bupropion], the Vd is 18.6 L/kg.
With `C[C@@H](NCCCc1cccc(C(F)(F)F)c1)c1cccc2ccccc12` [Cinacalcet], the distribution volume (Vd) was 17.6 L/kg.
For the compound `Nc1nc(N)c2nc(-c3ccccc3)c(N)nc2n1` [Triameterene], the distribution volume (Vd) was 13.4 L/kg.
Take `Nc1nc(=O)n([C@@H]2CS[C@H](CO)O2)cc1F` [Emtricitabine]: the volume of distribution (Vd) is 3.5 L/kg.
For the compound `Cc1nc2n(c(=O)c1CCN1CCC(c3noc4cc(F)ccc34)CC1)CCCC2O` (stereo not drawn) [Paliperidone], the volume of distribution (Vd) is 9.1 L/kg.
With `OCCOCCN1CCN(C(c2ccccc2)c2ccc(Cl)cc2)CC1` (stereo not drawn) [Hydroxyzine], the distribution volume (Vd) is 19 L/kg and 16 L/kg.
In the case of `CC(CN1c2ccccc2Sc2ccccc21)N(C)C` (stereo not drawn) [Promethazine], the distribution volume (Vd) was 13.4 L/kg.
For `O=C1c2c(O)ccc(O)c2C(=O)c2c(NCCNCCO)ccc(NCCNCCO)c21` [Mitoxantrone], the Vd is 90 L/kg.
For the compound `CN(C)CC(c1ccc(O)cc1)C1(O)CCCCC1` (stereo not drawn) [Desvenlafaxine], the volume of distribution (Vd) was 7.5 L/kg.
Take `OCCN1CCN(CCCN2c3ccccc3Sc3ccc(C(F)(F)F)cc32)CC1` [Fluphenazine]: the distribution volume (Vd) was 11 L/kg.
As to `CN1CCN2c3ncccc3Cc3ccccc3C2C1` (stereo not drawn) [Mirtazapine], the volume of distribution (Vd) was 4.5 L/kg.
On to `CCOC(=O)C1(c2ccccc2)CCN(C)CC1` [Meperidine], for which the Vd is 4.4 L/kg.
With `COc1cccc2c1C(=O)c1c(O)c3c(c(O)c1C2=O)C[C@@](O)(C(=O)CO)C[C@@H]3O[C@H]1C[C@H](N)[C@H](O)[C@H](C)O1` [Doxorubicin], the distribution volume (Vd) is 682 L/kg.
As for `CC(=O)O[C@@]12CO[C@@H]1C[C@H](O)[C@@]1(C)C(=O)[C@H](O)C3=C(C)[C@@H](OC(=O)[C@H](O)[C@@H](NC(=O)OC(C)(C)C)c4ccccc4)C[C@@](O)([C@@H](OC(=O)c4ccccc4)[C@H]21)C3(C)C` [Docetaxel], the volume of distribution (Vd) is 7.27 L/kg.
`COc1ccc([C@@H]2Sc3ccccc3N(CCN(C)C)C(=O)[C@@H]2OC(C)=O)cc1` [Diltiazem]: the Vd was 3.3 L/kg.
In the case of Ivermectin, the Vd is 9.91 L/kg.
Take `O=C(NCC1CCCCN1)c1cc(OCC(F)(F)F)ccc1OCC(F)(F)F` (stereo not drawn) [Flecainide]: the distribution volume (Vd) is 4.9 L/kg.
Turning to `CN(C)CCC(c1ccc(Cl)cc1)c1ccccn1` (stereo not drawn) [Chlorpheniramine], the Vd was 3.2 L/kg.
Consider `CC[C@H]1OC(=O)[C@H](C)[C@@H](O[C@H]2C[C@@](C)(OC)[C@@H](O)[C@H](C)O2)[C@H](C)[C@@H](O[C@@H]2O[C@H](C)C[C@H](N(C)C)[C@H]2O)[C@](C)(O)C[C@@H](C)CN(C)[C@H](C)[C@@H](O)[C@]1(C)O` [Azithromycin], for which the distribution volume (Vd) was 31 L/kg.
Take `CCCCCc1cc(O)c2c(c1)OC(C)(C)[C@@H]1CCC(C)=C[C@@H]21` [Dronabinol]: the Vd was 8.9 L/kg.
Take `CN(C)CCOc1ccc(/C(=C(/CCCl)c2ccccc2)c2ccccc2)cc1` [Toremifene]: the Vd is 48.38 L/kg.
Regarding `CCCCCOC(=O)Nc1nc(=O)n([C@@H]2O[C@H](C)[C@@H](O)[C@H]2O)cc1F` [Capecitabine], the volume of distribution (Vd) is 27.27 L/kg.
In the case of `CC(=O)[C@]1(O)Cc2c(O)c3c(c(O)c2[C@@H](O[C@H]2C[C@H](N)[C@H](O)[C@H](C)O2)C1)C(=O)c1ccccc1C3=O` [Idarubicin], the Vd is 24.7 L/kg.
`CNCC[C@H](Oc1cccc2ccccc12)c1cccs1` [Duloxetine]: the distribution volume (Vd) was 7 L/kg.
In the case of `c1cnc2cc3c(cc2n1)[C@@H]1CNC[C@H]3C1` [Varenicline], the Vd was 6.2 L/kg.
As to `CCC1=C[C@@H]2CN(C1)Cc1c([nH]c3ccccc13)[C@@](C(=O)OC)(c1cc3c(cc1OC)N(C)[C@H]1[C@@](O)(C(=O)OC)[C@H](OC(C)=O)[C@]4(CC)C=CCN5CC[C@]31[C@@H]54)C2` [Vinorelbine], the Vd was 76 L/kg.
`O=C(c1ccc(OCCN2CCCCC2)cc1)c1c(-c2ccc(O)cc2)sc2cc(O)ccc12` [Raloxifene]: the Vd was 2348 L/kg.
As to `O=C(CCCN1CCC(O)(c2ccc(Cl)cc2)CC1)c1ccc(F)cc1` [Haloperidol], the distribution volume (Vd) is 18 L/kg.
As for `CCC(C)n1ncn(-c2ccc(N3CCN(c4ccc(OCC5COC(Cn6cncn6)(c6ccc(Cl)cc6Cl)O5)cc4)CC3)cc2)c1=O` (stereo not drawn) [Itraconazole], the Vd was 10.7 L/kg.
Consider `Cc1ccc(-c2cc(C(F)(F)F)nn2-c2ccc(S(N)(=O)=O)cc2)cc1` [Celecoxib], for which the Vd is 6.12 L/kg.
Take `CCN(CC)CCNC(=O)c1cc(Cl)c(N)cc1OC` [Metoclopramide]: the distribution volume (Vd) was 3.4 L/kg.
In the case of `CN1CCN(C2=Nc3cc(Cl)ccc3Nc3ccccc32)CC1` [Clozapine], the Vd was 5.4 L/kg.
With `CC[C@]1(O)C[C@H]2CN(CCc3c([nH]c4ccccc34)[C@@](C(=O)OC)(c3cc4c(cc3OC)N(C=O)[C@H]3[C@@](O)(C(=O)OC)[C@H](OC(C)=O)[C@]5(CC)C=CCN6CC[C@]43[C@@H]65)C2)C1` [Vincristine], the volume of distribution (Vd) is 9.79 L/kg.
Regarding `CO[C@H]1C[C@@H]2CC[C@@H](C)[C@@](O)(O2)C(=O)C(=O)N2CCCC[C@H]2C(=O)O[C@H]([C@H](C)C[C@@H]2CC[C@@H](O)[C@H](OC)C2)CC(=O)[C@H](C)/C=C(\C)[C@@H](O)[C@@H](OC)C(=O)[C@H](C)C[C@H](C)/C=C/C=C/C=C/1C` [Sirolimus], the Vd was 12 L/kg.
Turning to `CCCCCN(C)CCC(O)(P(=O)(O)O)P(=O)(O)O` [Ibandronate], the Vd is 5.8 L/kg.
Consider `CCN(CC)CCCC(C)Nc1ccnc2cc(Cl)ccc12` (stereo not drawn) [Chloroquine], for which the Vd is 196.5 L/kg.
Regarding `COc1cc2nc(N(C)CCCNC(=O)C3CCCO3)nc(N)c2cc1OC` (stereo not drawn) [Alfuzosin], the Vd was 3.2 L/kg.
As for `CN(C)CCCN1c2ccccc2Sc2ccc(Cl)cc21` [Chlorpromazine], the Vd is 21 L/kg.
Regarding `CCCN(CCC)CCc1cccc2c1CC(=O)N2` [Ropinirole], the volume of distribution (Vd) was 7.5 L/kg.
For `CC/C(=C(\c1ccccc1)c1ccc(OCCN(C)C)cc1)c1ccccc1` [Tamoxifen], the volume of distribution (Vd) was 55 L/kg.
Regarding `O=[N+]([O-])OCC(CO[N+](=O)[O-])O[N+](=O)[O-]` [Nitroglycerin], the Vd was 3.3 L/kg.
For the compound `OCCOCCN1CCN(C2=Nc3ccccc3Sc3ccccc32)CC1` [Quetiapine], the Vd was 10 L/kg.
On to `CC12CC3CC(C)(C1)CC(N)(C3)C2` [Memantine], for which the Vd is 10.9 L/kg.
Turning to `CCN(CCO)CCCC(C)Nc1ccnc2cc(Cl)ccc12` (stereo not drawn) [Hydroxychloroquine], the volume of distribution (Vd) is 525 L/kg.
With `Fc1ccc([C@@H]2CCNC[C@H]2COc2ccc3c(c2)OCO3)cc1` [Paroxetine], the Vd is 17 L/kg.
In the case of `OC(c1cc(C(F)(F)F)nc2c(C(F)(F)F)cccc12)C1CCCCN1` (stereo not drawn) [Mefloquine], the volume of distribution (Vd) is 19 L/kg.
Turning to `CCN(CC)CCNC(=O)c1c(C)[nH]c(/C=C2\C(=O)Nc3ccc(F)cc32)c1C` [Sunitinib], the volume of distribution (Vd) was 4 L/kg.
Consider `Cc1cn(-c2cc(NC(=O)c3ccc(C)c(Nc4nccc(-c5cccnc5)n4)c3)cc(C(F)(F)F)c2)cn1` [Nilotinib], for which the Vd is 3.0 L/kg.
Turning to `CN(C)CCC=C1c2ccccc2COc2ccccc21` [Doxepin], the distribution volume (Vd) was 24 L/kg.
For `O=C1CCc2ccc(OCCCCN3CCN(c4cccc(Cl)c4Cl)CC3)cc2N1` [Aripiprazole], the distribution volume (Vd) is 4.9 L/kg.
For `CC(=O)S[C@@H]1CC2=CC(=O)CC[C@]2(C)[C@H]2CC[C@@]3(C)[C@@H](CC[C@@]34CCC(=O)O4)[C@H]12` [Spironolactone], the volume of distribution (Vd) is 10 L/kg.
Regarding `C[C@]12CC[C@@H]3c4ccc(O)cc4C[C@@H](CCCCCCCCC[S+]([O-])CCCC(F)(F)C(F)(F)F)[C@H]3[C@@H]1CC[C@@H]2O` (stereo partly drawn) [Fulvestrant], the volume of distribution (Vd) was 4.15 L/kg.
`CC[C@@H]([C@H](C)O)n1ncn(-c2ccc(N3CCN(c4ccc(OC[C@@H]5CO[C@@](Cn6cncn6)(c6ccc(F)cc6F)C5)cc4)CC3)cc2)c1=O` [Posaconazole]: the Vd is 11.9 L/kg.
With `COc1c(C)c2c(c(O)c1C/C=C(\C)CCC(=O)O)C(=O)OC2` [Mycophenolate], the distribution volume (Vd) is 3.8 L/kg.
`COCCc1ccc(OCC(O)CNC(C)C)cc1` (stereo not drawn) [Metoprolol]: the volume of distribution (Vd) is 4.2 L/kg.
In the case of `CNCCC=C1c2ccccc2CCc2ccccc21` [Nortriptyline], the volume of distribution (Vd) was 18 L/kg.
Consider `CC1=C(/C=C/C(C)=C/C=C/C(C)=C\C(=O)O)C(C)(C)CCC1` [Isotretinoin], for which the distribution volume (Vd) was 5 L/kg.
